What was measured:
[1] = tested on: anemia in piglets; settings: reported in Patent Document 1; cited from earlier work
[2] = Administration of radiolabeled ALA (14C-ALA) to research the pharmacokinetics of ALA; format: in vivo
[3] = tested on: chronic kidney disease; experiment: Example 2: ingestion by a person diagnosed with chronic kidney disease, dose switched 50 mg / 5 mg / 50 mg; format: in vivo, human
From the text: The effects of ingesting aminolevulinic acid phosphate and sodium ferrous citrate were examined for a person diagnosed with chronic kidney disease.

[4] = tested on: chronic kidney disease; experiment: Example 3: ingestion by a person with chronic kidney disease after removal of one kidney; format: in vivo, human; settings: after ingestion of 150 mg aminolevulinic acid phosphate and 172 mg sodium ferrous citrate per day
From the text: The effects of ingesting aminolevulinic acid phosphate and sodium ferrous citrate were examined for a person diagnosed with chronic kidney disease after removing one of their kidneys about 5 years ago because of cancer.

[5] = (c) after one month of switching to 5 mg aminolevulinic acid phosphate + 5.74 mg sodium ferrous citrate
[6] = (d) after two months of switching to 5 mg aminolevulinic acid phosphate + 5.74 mg sodium ferrous citrate

| Molecule | prevention of anemia [1] | retention of radiation in the kidneys ([2]; ALA excessively administered, even if urine is discharged) | tissue accumulation of ALA-derived radiation ([2]; radiolabeled ALA (14C-ALA) administered) | Serum creatinine [3, 5] [mg/dL] | Urea nitrogen [3, 5] [mg/dL] | eGFR [3, 5] [mL/min/1.73 m^2] | Serum creatinine [3, 6] [mg/dL] | Urea nitrogen [3, 6] [mg/dL] | eGFR [3, 6] [mL/min/1.73 m^2] | fatigue / quality of life ([3]; person who ingested aminolevulinic acid phosphate and sodium ferrous citrate) | eGFR value (in words) ([3]; when 50 mg of aminolevulinic acid phosphate was ingested) | eGFR value (in words) ([3]; when once again returned to 50 mg) | improvement rate of the eGFR value (in words) ([3]; when reduced to 5 mg aminolevulinic acid phosphate and 5.74 mg sodium ferrous citrate) | serum creatinine (FIG. 1, in words) [4] |
| --- | --- | --- | --- | --- | --- | --- | --- | --- | --- | --- | --- | --- | --- | --- |
| NCC(=O)CCC(=O)O [ALA, 5-aminolevulinic acid] | effective in preventing anemia in piglets | radiation has remained in the kidneys even after the passing of time | found in not only the anticipated liver and muscles, but also in the kidneys |  |  |  |  |  |  |  |  |  |  |  |
| aminolevulinic acid phosphate |  |  |  | 1.14 | 12.90 | 50.10 | 1.25 | 14.10 | 45.30 | relieved from the fatigue peculiar to chronic kidney disease | remarkably improved (increased) | remarkable improvement | lowered | remarkable reduction |
